{"source": "paper PMC11915035", "about": "“Characterization of [^3H]Propionylated Human Peptide YY-A New Probe for Neuropeptide Y Y2 Receptor Binding Studies” (ACS Pharmacology & Translational Science, 2025)", "origin": "cited, not measured here", "key": {"pY2R": {"molecular_target": "pY2R", "settings": "COS-7 pY2R; 50 mM HEPES, 0 mM Na+; species of peptide not indicated; ref Rose et al.[2]", "excerpt": "(§1) Table 1 Reported Peptidic Radioligands Used for Y2R Binding Studies | column: Kd [nM]"}, "Y2R": {"tested_on": "Y2R", "settings": "read-out: literature IC50, sodium-containing buffer"}, "Y1R, Y2R, Y4R, Y5R": {"tested_on": "Y1R, Y2R, Y4R, Y5R", "settings": "ref 2−4", "excerpt": "Activation of all four receptor subtypes is induced by the homologous neuropeptides NPY, peptide YY (PYY), and pancreatic polypeptide (PP).[1]"}, "[1]": {"molecular_target": "rat hippocampal membrane preparation", "settings": "KRP buffer, […] Na+; species of peptide not indicated; ref Dumont et al.[25]", "excerpt": "as §1"}, "[2]": {"molecular_target": "calf hippocampus membrane preparation", "settings": "Krebs–Ringer/20 mM HEPES, 137 mM Na+; species of peptide not indicated; ref Czerwiec et al.[34]", "excerpt": "as §1"}}, "note": "Where two headings read alike, the source gives them in different places."}
{"molecule": "[^125I]NPY: iodine-125 labeled derivative of NPY; species human or not indicated", "values": [{"measurement": "Kd", "setting": "pY2R", "value": 0.58, "unit": "nM"}]}
{"molecule": "CCN(CC)C(=O)C(c1ccccc1)N1CCN(c2ccc(NC(=O)c3ccccc3-c3cccnc3)cc2F)CC1", "note": "(stereo not shown) [JNJ31020028, N-(4–4-[2-(diethylamino)-2-oxo-1-phenylethyl]piperazin-1-yl-3-fluorophenyl)-2-pyridin-3-ylbenzamide]", "values": [{"measurement": "IC50", "setting": "Y2R; ref Shoblock et al.[39]", "value": 8.5, "unit": "nM"}, {"measurement": "IC50", "setting": "Y2R; ref Swanson et al.[59]", "value": 6, "unit": "nM"}]}
{"molecule": "[^125I]PYY: iodine-125 labeled derivative of PYY; species porcine or not indicated", "values": [{"measurement": "Kd", "setting": "pY2R", "value": 0.27, "unit": "nM"}]}
{"molecule": "pancreatic polypeptide [PP]", "values": [{"measurement": "YR binding preference", "setting": "Y1R, Y2R, Y4R, Y5R", "value": "clear preference for Y4R over the other YRs"}]}
{"molecule": "[^125I]PYY (3–36): iodine-125 labeled derivative of PYY", "values": [{"measurement": "Kd", "setting": "[1]", "value": 0.013, "unit": "nM"}]}
{"molecule": "N-[^3H]propionyl-NPY: tritiated NPY derivative, most likely [^3H]propionylated at the ε-amino group of Lys^4", "values": [{"measurement": "Kd", "setting": "[2]", "value": 0.7, "unit": "nM"}]}
